According to patent publication US9682938B2, “Pyrazolone derivatives as nitroxyl donors” (Cardioxyl Pharmaceuticals, Inc., priority 2014, dated 2017):

Experiments:
[1] = In vitro plasma stability, dog plasma; type: in vitro ADME; details: male, pH 7.4, 5 μM, 37° C., sampling 0-360 minutes, read-out: T1/2 Dog
Method in brief: (§1)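 Pooled plasma at pH 7.4 with sodium heparin or citrate anticoagulant; compound at 5 μM, 37° C with shaking, triplicate samples at 0–360 min. Quenched in acetonitrile/1% formic acid with internal standard; LC-MS/MS peak-area ratios without standard curve; T1/2 from percent remaining.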

[2] = In vitro plasma stability, rat plasma; type: in vitro ADME; details: male, pH 7.4, 5 μM, 37° C., sampling 0-360 minutes, read-out: T1/2 Rat
Method in brief: as §1

[3] = In vitro plasma stability, human plasma; type: in vitro ADME; details: male, pH 7.4, 5 μM, 37° C., sampling 0-360 minutes, read-out: T1/2 Human
Method in brief: as §1

[4] = system: normal beagle dogs; assay: Pharmacodynamic activity: systolic blood pressure decrease in telemetered dogs after oral dose; type: in vivo, dog; details: beagle dogs (n=3), single oral dose 30 mg/kg in PEG300, first 2 hr post-dose relative to baseline SBP
Description: The effect of certain compounds from Table 1 on blood pressure in freely moving telemetered normal beagle dogs (n=3) after single oral doses was evaluated. The animals were surgically implanted with a pressure transducer equipped telemetry transmitter. The transmitter assembly was secured internally and a fluid-filled catheter was placed into the abdominal aorta to allow for collection of cardiovascular data. To evaluate cardiovascular effects, 3 dogs were given single oral doses of a compound from Table 1 (100% PEG300 in gelatin capsules) at a concentration of 100 mg/mL and at doses of 30 mg/kg. Systemic blood pressure and heart rate were evaluated continuously for 2 hr before and for 24 hr after dosing (results not shown). To compare the pharmacodynamic activity for all tested compounds, the mean systolic blood pressure (SBP) decrease during the first 2 hr post-dose was determined relative to the baseline SBP (30-120 min pre-dose) (Table 6).

CN1N=C(c2ccc(C(F)(F)F)cc2)C(C)(NO)C1=O (stereo not drawn) [Compound 4, 4-(hydroxyamino)-2,4-dimethyl-5-(4-(trifluoromethyl)phenyl)-2,4-dihydro-3H-pyrazol-3-one]
half-life at 5 μM [1]: 69 min
half-life at 5 μM [2]: 38 min
half-life at 5 μM [3]: 31 min
Mean SBP decrease [4]: 6 mmHg

CN1N=C(c2ccc(S(=O)(=O)C(F)(F)F)cc2)C(C)(NO)C1=O (stereo not drawn) [Compound 34, 4-(hydroxyamino)-2,4-dimethyl-5-(4-((trifluoromethyl)sulfonyl)phenyl)-2,4-dihydro-3H-pyrazol-3-one]
half-life at 5 μM [1]: 25 min
half-life at 5 μM [2]: 28 min
half-life at 5 μM [3]: 36 min
Mean SBP decrease [4]: 18 mmHg

CN1N=C(c2ccc(S(C)(=O)=O)c(F)c2)C(C)(NO)C1=O (stereo not drawn) [Compound 40, 5-(3-fluoro-4-(methylsulfonyl)phenyl)-4-(hydroxyamino)-2,4-dimethyl-2,4-dihydro-3H-pyrazol-3-one]
half-life at 5 μM [1]: 48 min
half-life at 5 μM [2]: 39 min
half-life at 5 μM [3]: 39 min
Mean SBP decrease [4]: 15 mmHg

CN1N=C(c2cccc(S(C)(=O)=O)c2)C(C)(NO)C1=O (stereo not drawn) [Compound 48, 4-(hydroxyamino)-2,4-dimethyl-5-(3-(methylsulfonyl)phenyl)-2,4-dihydro-3H-pyrazol-3-one]
half-life at 5 μM [1]: 49 min
half-life at 5 μM [2]: 53 min
half-life at 5 μM [3]: 49 min
Mean SBP decrease [4]: 17 mmHg

CN1N=C(c2ccc(S(=O)(=O)N(C)C)cc2)C(C)(NO)C1=O (stereo not drawn) [Compound 49, 4-(4-(hydroxyamino)-1,4-dimethyl-5-oxo-4,5-dihydro-1H-pyrazol-3-yl)-N,N-dimethylbenzenesulfonamide]
half-life at 5 μM [1]: 39 min
half-life at 5 μM [2]: 70 min
half-life at 5 μM [3]: 52 min
Mean SBP decrease [4]: 18 mmHg

CN1N=C(c2ccc(S(C)(=N)=O)cc2)C(C)(NO)C1=O (stereo not drawn) [Compound 75, 4-(Hydroxyamino)-3-{4-[imino(methyl)oxo-λ^6-sulfanyl]phenyl}-1,4-dimethyl-4,5-dihydro-1H-pyrazol-5-one]
half-life at 5 μM [1]: 47 min
half-life at 5 μM [2]: 113 min
half-life at 5 μM [3]: 49 min
Mean SBP decrease [4]: 12 mmHg

CC(C)S(=O)(=O)c1ccc(C2=NN(C)C(=O)C2(C)NO)cc1 (stereo not drawn) [Compound 78, 4-(Hydroxyamino)-1,4-dimethyl-3-[4-(propane-2-sulfonyl)phenyl]-4,5-dihydro-1H-pyrazol-5-one]
half-life at 5 μM [1]: 42 min
half-life at 5 μM [2]: 75 min
half-life at 5 μM [3]: 43 min
Mean SBP decrease [4]: 27 mmHg

CN1N=C(c2ccc(S(=O)(=O)N3CCOCC3)cc2)C(C)(NO)C1=O (stereo not drawn) [Compound 80, 4-(Hydroxyamino)-1,4-dimethyl-3-[4-(morpholine-4-sulfonyl)phenyl]-4,5-dihydro-1H-pyrazol-5-one]
half-life at 5 μM [1]: 49 min
half-life at 5 μM [2]: 80 min
half-life at 5 μM [3]: 46 min
Mean SBP decrease [4]: 13 mmHg

CN(C)C(=O)c1ccc(C2=NN(C)C(=O)C2(C)NO)cc1 (stereo not drawn) [Compound 84, 4-[4-(Hydroxyamino)-1,4-dimethyl-5-oxo-4,5-dihydro-1H-pyrazol-3-yl]-N,N-dimethylbenzamide]
half-life at 5 μM [1]: 100 min
half-life at 5 μM [2]: 161 min
half-life at 5 μM [3]: 89 min
Mean SBP decrease [4]: 15 mmHg

C/C(=N\OCc1ccccc1)C1(NO)C(=O)N(C)N=C1C(C)(C)C (stereo not drawn) [Compound 115, 4-[1-[(Benzyloxy)imino]ethyl]-3-tert-butyl-4-(hydroxyamino)-1-methyl-4,5-dihydro-1H-pyrazol-5-one]
half-life at 5 μM [1]: 27 min
half-life at 5 μM [2]: 32 min
half-life at 5 μM [3]: 14 min

CO/N=C(\C)C1(NO)C(=O)N(c2ccccc2)N=C1OC (stereo not drawn) [Compound 116, 4-(Hydroxyamino)-3-methoxy-4-[1-(methoxyimino)ethyl]-1-phenyl-4,5-dihydro-1H-pyrazol-5-one]
half-life at 5 μM [1]: 18 min
half-life at 5 μM [2]: 48 min
half-life at 5 μM [3]: 9 min

C/C(=N\OC(C)(C)C)C1(NO)C(=O)N(C)N=C1C(C)(C)C (stereo not drawn) [Compound 117, 4-[1-[(tert-Butoxy)imino]ethyl]-3-tert-butyl-4-(hydroxyamino)-1-methyl-4,5-dihydro-1H-pyrazol-5-one]
half-life at 5 μM [1]: 34 min
half-life at 5 μM [2]: 36 min
half-life at 5 μM [3]: 16 min

C/C(=N\Oc1ccc(Br)cc1)C1(NO)C(=O)N(C)N=C1C(C)(C)C (stereo not drawn) [Compound 118, 4-[1-[(4-Bromophenoxy)imino]ethyl]-3-tert-butyl-4-(hydroxyamino)-1-methyl-4,5-dihydro-1H-pyrazol-5-one]
half-life at 5 μM [1]: 24 min
half-life at 5 μM [2]: 22 min
half-life at 5 μM [3]: 5 min

C/C(=N\Oc1ccccc1)C1(NO)C(=O)N(C)N=C1C(C)(C)C (stereo not drawn) [Compound 119, 3-tert-Butyl-4-(hydroxyamino)-1-methyl-4-[1-(phenoxyimino)ethyl]-4,5-dihydro-1H-pyrazol-5-one]
half-life at 5 μM [1]: 118 min
half-life at 5 μM [2]: 91 min
half-life at 5 μM [3]: 12 min

CC(C)S(=N)(=O)c1ccc(C2=NN(C)C(=O)C2(C)NO)cc1 (stereo not drawn) [Compound 120, 4-(Hydroxyamino)-3-{4-[imino(oxo)propan-2-yl-λ^6-sulfanyl]phenyl}-1,4-dimethyl-4,5-dihydro-1H-pyrazol-5-one]
half-life at 5 μM [1]: 31 min
half-life at 5 μM [2]: 56 min
half-life at 5 μM [3]: 32 min

CO/N=C(\C)C1(NO)C(=O)N(C)N=C1c1ccc(S(=O)(=O)N(C)C)cc1 (stereo not drawn) [Compound 121, 4-[4-(Hydroxyamino)-4-[1-(methoxyimino)ethyl]-1-methyl-5-oxo-4,5-dihydro-1H-pyrazol-3-yl]-N,N-dimethylbenzene-1-sulfonamide]
half-life at 5 μM [1]: 4 min
half-life at 5 μM [2]: 8 min
half-life at 5 μM [3]: 2 min

CN1N=C(C(C)(C)C)C(NO)(c2ccc(S(=O)(=O)N(C)C)cc2)C1=O (stereo not drawn) [Compound 122, 4-[3-tert-Butyl-4-(hydroxyamino)-1-methyl-5-oxo-4,5-dihydro-1H-pyrazol-4-yl]-N,N-dimethylbenzene-1-sulfonamide]
half-life at 5 μM [1]: 35 min
half-life at 5 μM [2]: 34 min
half-life at 5 μM [3]: 31 min

CO/N=C(\C)C1(NO)C(=O)N(C)N=C1c1ccc(C(=O)N(C)C)cc1 (stereo not drawn) [Compound 123, 4-[4-(Hydroxyamino)-4-[1-(methoxyimino)ethyl]-1-methyl-5-oxo-4,5-dihydro-1H-pyrazol-3-yl]-N,N-dimethylbenzamide]
half-life at 5 μM [1]: 6 min
half-life at 5 μM [2]: 11 min
half-life at 5 μM [3]: 6 min

CN(C)C(=O)c1ccc(C2(NO)C(=O)N(C)N=C2C(C)(C)C)cc1 (stereo not drawn) [Compound 124, 4-[3-tert-Butyl-4-(hydroxyamino)-1-methyl-5-oxo-4,5-dihydro-1H-pyrazol-4-yl]-N,N-dimethylbenzamide]
half-life at 5 μM [1]: 45 min
half-life at 5 μM [2]: 44 min
half-life at 5 μM [3]: 31 min

CCOC1=NN(C)C(=O)C1(NO)/C(C)=N/OCc1ccccc1 (stereo not drawn) [Compound 125, 4-[1-[(Benzyloxy)imino]ethyl]-3-ethoxy-4-(hydroxyamino)-1-methyl-4,5-dihydro-1H-pyrazol-5-one]
half-life at 5 μM [1]: 13 min
half-life at 5 μM [2]: 15 min
half-life at 5 μM [3]: 10 min

CCOC1=NN(C)C(=O)C1(NO)/C(C)=N/OC (stereo not drawn) [Compound 126, 3-Ethoxy-4-(hydroxyamino)-4-[1-(methoxyimino)ethyl]-1-methyl-4,5-dihydro-1H-pyrazol-5-one]
half-life at 5 μM [1]: 30 min
half-life at 5 μM [2]: 18 min
half-life at 5 μM [3]: 18 min

CCOC1=NN(c2ccccc2)C(=O)C1(C)NO (stereo not drawn) [Compound 127, 3-Ethoxy-4-(hydroxyamino)-4-methyl-1-phenyl-4,5-dihydro-1H-pyrazol-5-one]
half-life at 5 μM [1]: > 480 min
half-life at 5 μM [2]: > 480 min
half-life at 5 μM [3]: > 480 min

CO/N=C(\C)C1(NO)C(=O)N(c2ccccc2)N=C1[S+]([O-])c1ccccc1 (stereo not drawn) [Compound 130, 3-(Benzenesulfinyl)-4-(hydroxyamino)4[1-(methoxyimino)ethyl]-1-phenyl-4,5-dihydro1H-pyrazol-5-one]
half-life at 5 μM [1]: < 1 min
half-life at 5 μM [2]: < 1 min
half-life at 5 μM [3]: < 1 min

CO/N=C(\C)C1(NO)C(=O)NN=C1C(C)(C)C (stereo not drawn) [Compound 131, 3-tert-Butyl-4-(hydroxyamino)-4-[1-(methoxyimino)ethyl]-4,5-dihydro-1H-pyrazol-5-one]
half-life at 5 μM [1]: 7 min
half-life at 5 μM [2]: 24 min
half-life at 5 μM [3]: 15 min

CC1=NN(C)C(=O)C1(NO)c1noc(-c2ccccc2)n1 (stereo not drawn) [Compound 132, 4-(Hydroxyamino)-1,3-dimethyl-4-(5-phenyl-1,2,4-oxadiazol-3-yl)-4,5-dihydro-1H-pyrazol-5-one]
half-life at 5 μM [1]: < 1 min
half-life at 5 μM [2]: < 1 min
half-life at 5 μM [3]: < 1 min

CC1(NO)C(=O)NN=C1c1ccc(S(C)(=O)=O)cc1 (stereo not drawn) [Compound 133, 4-(Hydroxyamino)-3-(4-methanesulfonylphenyl)-4-methyl-4,5-dihydro-1H-pyrazol-5-one]
half-life at 5 μM [1]: 126 min
half-life at 5 μM [2]: 116 min
half-life at 5 μM [3]: 110 min

CCO/N=C(\C)C1(NO)C(=O)NN=C1C(C)(C)C (stereo not drawn) [Compound 134, 3-tert-Butyl-4-[1-(ethoxyimino)ethyl]-4-(hydroxyamino)-4,5-dihydro-1H-pyrazol-5-one]
half-life at 5 μM [1]: 26 min
half-life at 5 μM [2]: 20 min
half-life at 5 μM [3]: 17 min
